Assay results: PubChem BioAssay AID1963980 (Molecular Pharmacology Branch, DTP, NCI, 2024)

Test system: 475296-252-R-J1-PDC spheroid viability
Assay: Anticancer human tumor 475296-252-R-J1-PDC patient-derived rectal carcinoma cell line growth inhibition [PI3K]
Conditions: spheroids with HUVEC and MSC; for IC50: curve of first compound; for viability, T/C: stronger effect = lower value; active = viability on the fitted dose curve at most 10% of control; inactive = the rest
Source text: Combinatorial screen of targeted agents with the PI3K inhibitors inavolisib, alpelisib, duvelisib, and copanlisib in multi-cell type tumor spheroids
A high-throughput screen of multi-cell type tumor spheroids was designed to identify active combinations of targeted small molecules and PI3K pathway inhibitors. Complex spheroids include a stromal component modeled by human endothelial cells (HUVEC) and fibroblasts modeled by human mesenchymal stem cells (MSCs). The concentration ranges selected for each drug and investigational agent were based upon clinically achievable concentrations if the clinical Cmax of the agent was known.
Compounds. The drugs and investigational agents: inavolisib (NSC800729), alpelisib (NSC765974), duvelisib (NSC772469), copanlisib (NSC816437), ipatasertib (NSC767898), afuresertib (NSC778305), talazoparib (NSC767125), sapanisertib (NSC764658), selumetinib (NSC741078), tovorafenib (DAY101, NSC766906), vemurafenib (NSC761431), ravoxertinib (NSC781343), sotorasib (NSC818433), MRTX1133 (NSC 836407), abemaciclib (NSC 768073), palbociclib (NSC758247), venetoclax (NSC 766270), SY5609 (NSC837396), enzalutamide (NSC755605), and darolutamide (NSC825331), were obtained from the National Cancer Institute (NCI) Developmental Therapeutics Program Chemical Repository. The FDA-approved anticancer drug set is available from the NCI Developmental Therapeutics Program. […] The stock solutions were prepared in dimethyl sulfoxide (DMSO, Sigma-Aldrich, St. Louis, MO, cat. D2650) at 800-fold the tested concentration and stored at -70 degrees C prior to their use. All drugs and investigational agents were tested over a range starting from a high concentration at or near the clinical Cmax and decreasing in half-log increments. If the clinical Cmax for an agent had not been determined, the highest concentration tested was 10 microM.
Cell Culture. All cells were maintained in an incubator at 37 degrees C and 5% CO2 with 95% humidity. The PDC lines were cultured according to standard operating procedures established by the NCI PDMR (https://pdmr.cancer.gov/sops/default.htm). All PDCs were thawed and cultured in Matrigel-coated flasks prepared with a working solution of 1X Ham's F-12 nutrient mix, without supplementation (Invitrogen, Waltham, MA, cat. 11765054), 100 U/mL penicillin-streptomycin (Invitrogen, cat. 15140122), and 2.5% Matrigel (Corning Inc., Corning, NY, cat. 354248) for the first three passages. The 354836-022-R-J1-PDC, 475296-252-R-J1-PDC, and 997726-040-R-J2-PDC lines were cultured in 6A media, which includes advanced DMEM/F-12 (Thermo Fisher Scientific, cat. 12634028), 10 mM HEPES (Thermo Fisher Scientific, cat. 15630080), 1X GlutaMAX supplement (Thermo Fisher Scientific, cat. 35050061), 0.1 mg/mL primocin (InvivoGen, San Diego, CA, cat. ant-pm-2), 10% defined fetal bovine serum, heat inactivated (HyClone Laboratories Inc., Logan, UT, cat. SH30070.03HI), 50% L-WRN conditioned media (ATCC, cat. CRL-3276), 1.25 mM N-Acetyl-L-cysteine (Sigma-Aldrich, cat. A9165), 10 mM nicotinamide (Sigma-Aldrich, cat. N0636), 1X B-27 supplement (Thermo Fisher Scientific, cat. 17504044), 1X N-2 supplement (Thermo Fisher Scientific, cat. 17502048), and 10 microM Y-27632 dihydrochloride (Tocris Bioscience, Bristol, United Kingdom, cat. 1254). The 624824-186-R-J2-PDC line was cultured in 6C/Colon 1B media, which includes all 6A media components plus 50 ng/mL human EGF recombinant protein (Thermo Fisher Scientific, cat. PHG0311). […]

[1] = second compound 0.0316 µM, first compound 0.0316 µM
[2] = second compound 0.0316 µM, first compound 0.1 µM
[3] = second compound 0.0316 µM, first compound 0.316 µM
[4] = second compound 0.0316 µM, first compound 1 µM
[5] = second compound 0.0316 µM, first compound 3.16 µM
[6] = second compound 0.0316 µM, first compound 10 µM
[7] = second compound 0.1 µM, first compound 0.0316 µM
[8] = second compound 0.1 µM, first compound 0.1 µM
[9] = second compound 0.1 µM, first compound 0.316 µM
[10] = second compound 0.1 µM, first compound 1 µM
[11] = second compound 0.1 µM, first compound 3.16 µM
[12] = second compound 0.1 µM, first compound 10 µM
[13] = second compound 0.316 µM, first compound 0.0316 µM
[14] = second compound 0.316 µM, first compound 0.1 µM
[15] = second compound 0.316 µM, first compound 0.316 µM
[16] = second compound 0.316 µM, first compound 1 µM
[17] = second compound 0.316 µM, first compound 3.16 µM
[18] = second compound 0.316 µM, first compound 10 µM
[19] = second compound 1 µM, first compound 0.0316 µM
[20] = second compound 1 µM, first compound 0.1 µM
[21] = second compound 1 µM, first compound 0.316 µM
[22] = second compound 1 µM, first compound 1 µM
[23] = second compound 1 µM, first compound 3.16 µM
[24] = second compound 1 µM, first compound 10 µM
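Also: spheroids exposed to agents for seven days before readout.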

C#Cc1c(F)ccc2cc(O)cc(-c3ncc4c(N5CC6CCC(C5)N6)nc(OCC56CCCN5CC(F)C6)nc4c3F)c12 (centres undefined) + CC(Nc1ccc2c(c1)OCCn1cc(N3C(=O)OCC3C(F)F)nc1-2)C(N)=O
9.51 µM: IC50 (second compound 0.1 µM)
inactive: viability, T/C (second compound 0.00316 µM, first compound 0.0316 µM) 104% | viability, T/C (second compound 0.00316 µM, first compound 0.1 µM) 78.2% | viability, T/C (second compound 0.00316 µM, first compound 0.316 µM) 87.1% | viability, T/C (second compound 0.00316 µM, first compound 1 µM) 74.6% | viability, T/C (second compound 0.00316 µM, first compound 3.16 µM) 67.5% | viability, T/C (second compound 0.00316 µM, first compound 10 µM) 67% | viability, T/C (second compound 0.01 µM, first compound 0.0316 µM) 98.6% | viability, T/C (second compound 0.01 µM, first compound 0.1 µM) 83% | viability, T/C (second compound 0.01 µM, first compound 0.316 µM) 85.3% | viability, T/C (second compound 0.01 µM, first compound 1 µM) 73.1% | viability, T/C (second compound 0.01 µM, first compound 3.16 µM) 75.1% | viability, T/C (second compound 0.01 µM, first compound 10 µM) 59.1% | viability, T/C [1] 94.2% | viability, T/C [2] 87.2% | viability, T/C [3] 77.6% | viability, T/C [4] 73.8% | viability, T/C [5] 73.3% | viability, T/C [6] 59.2% | viability, T/C [7] 89% | viability, T/C [8] 94.6% | viability, T/C [9] 74.3% | viability, T/C [10] 72.1% | viability, T/C [11] 61.1% | viability, T/C [12] 49% | viability, T/C [13] 78.2% | viability, T/C [14] 87.7% | viability, T/C [15] 86.6% | viability, T/C [16] 61.3% | viability, T/C [17] 36.5% | viability, T/C [18] 18.1% | viability, T/C [19] 92.1% | viability, T/C [20] 75.1% | viability, T/C [21] 67.4% | viability, T/C [22] 52.8% | viability, T/C [23] 16.9%
0.828 µM: IC50 (second compound 1 µM)
active: viability, T/C [24] 9.3%
1.75 µM: IC50 (second compound 0.316 µM)
> 10 µM: IC50 (second compound 0.00316 µM) | IC50 (second compound 0.01 µM) | IC50 (second compound 0.0316 µM)

Cn1ncc(Cl)c1-c1cc(C(=O)NC(CN)Cc2cccc(F)c2)sc1Cl (centres undefined) + Cc1nc(NC(=O)N2CCCC2C(N)=O)sc1-c1ccnc(C(C)(C)C(F)(F)F)c1
4.16 µM: IC50 (second compound 10 µM)
> 10 µM: IC50 (second compound 0.0316 µM) | IC50 (second compound 0.1 µM) | IC50 (second compound 0.316 µM) | IC50 (second compound 1 µM)
8.01 µM: IC50 (second compound 3.16 µM)
inactive: viability, T/C [1] 91.1% | viability, T/C [2] 74.3% | viability, T/C [3] 75.3% | viability, T/C [4] 67.1% | viability, T/C [5] 71.3% | viability, T/C [6] 67.4% | viability, T/C [7] 96.9% | viability, T/C [8] 85.2% | viability, T/C [9] 66.8% | viability, T/C [10] 54% | viability, T/C [11] 64.4% | viability, T/C [12] 67.4% | viability, T/C [13] 77.6% | viability, T/C [14] 83.5% | viability, T/C [15] 73.4% | viability, T/C [16] 55.9% | viability, T/C [17] 67.3% | viability, T/C [18] 54% | viability, T/C [19] 84.5% | viability, T/C [20] 85.4% | viability, T/C [21] 78% | viability, T/C [22] 58.5% | viability, T/C [23] 62.8% | viability, T/C [24] 51.2% | viability, T/C (second compound 3.16 µM, first compound 0.0316 µM) 83.1% | viability, T/C (second compound 3.16 µM, first compound 0.1 µM) 78.8% | viability, T/C (second compound 3.16 µM, first compound 0.316 µM) 84.2% | viability, T/C (second compound 3.16 µM, first compound 1 µM) 67% | viability, T/C (second compound 3.16 µM, first compound 3.16 µM) 61.5% | viability, T/C (second compound 3.16 µM, first compound 10 µM) 47.2% | viability, T/C (second compound 10 µM, first compound 0.0316 µM) 84.8% | viability, T/C (second compound 10 µM, first compound 0.1 µM) 78.8% | viability, T/C (second compound 10 µM, first compound 0.316 µM) 81.7% | viability, T/C (second compound 10 µM, first compound 1 µM) 69.3% | viability, T/C (second compound 10 µM, first compound 3.16 µM) 57.6% | viability, T/C (second compound 10 µM, first compound 10 µM) 28.5%
